Experimental data reported in patent US20260327211A1, “MODULATORS OF A POTASSIUM CHANNEL AND OF TRPV1 CHANNEL AND USES THEREOF” (Bsense Bio Therapeutics Ltd., priority 2023, published 2026).
Where “and” joins values, the source holds several entries; their conditions need not be identical. Equal entries are not always repeated. Where two headings read alike, the source gives them in different places.

What was measured:
[1] = Human liver microsome metabolic stability; assay type: in vitro ADME; conditions: for microsomal CLint at 1 µM: read-out: HLM Clint; for half-life at 1 µM: human, liver microsomes, read-out: HLM T1/2
Summary of the method: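 Compound at 1 μM was incubated at 37 °C with pooled liver microsomes at 0.5 mg/mL and an NADPH regenerating system (about 1.0 mM). Samples were taken from 0 to 60 min, quenched in cold acetonitrile and quantified by LC-MS/MS against an internal standard. CLint was scaled with species liver weights (rat 40 g/kg, human 20 g/kg).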

hKv7.2/3 = molecular target: T1, hKv7.2/3 (Homo sapiens, UniProt O43525+O43526); experiment: Kv7.2/7.3 HCS, FLIPR potassium (thallium) assay, CHO/hKv7.2/3; assay type: cell-based
T1 construct: host or cells: CHO
Summary of the method: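 CHO cells stably expressing human Kv7.2/3, loaded with Tl+ indicator dye 1.5 h at room temperature in HBSS/HEPES with compound (0.2% DMSO). Channels activated by injection of 1 mM Tl2SO4 plus 5 mM K2SO4; fluorescence increase reflects Tl+ influx. EC50 from sigmoidal fit constrained to minimum 1, maximum ~3.6.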

rat DRG neurons = experiment: Rat DRG neurons, capsaicin-evoked action potential firing; assay type: cell-based; conditions: for IC50: capsaicin 1 μM, read-out: Rat DRGs, CAP IC50
Source text: rDRGs isolation and primary cell culture: Briefly, rat DRGs from all spinal levels were carefully removed and collected in HBSS on ices, connective tissue of the epineurium surrounding the ganglion was removed and cells were dissociated using Collagenase-II and trypsin dissociation solutions. DRGs were dissociated further, passed through glass Pasteur pipettes to obtain single cells. Then dissociation solution was changed to 5% FBS containing DRG neuronal culture medium and plated onto ECL coated 12 mm cover glass.
Additional rDRGs experiments were performed using Lonza primary neonatal rat (Sprague Dawley neonatal; P2,3) DRG neurons (R-DRG-505, Lonza) plated and cultured according to the manufacturer.
Electrophysiology: Cells were used for electrophysiological recording at least 48 hours following rDRG isolation or at least 5 days following cryopreserved rDRG thawing. Round small neurons (20-40 μm in diameter) were selected for electrophysiology recordings, to select for small nociceptive neurons that propagate pain sensation in vivo and that are expressing both Kv7.2/3 and TRPV1 targets. Membrane excitability was monitored using current clamp configuration of the whole-cell patch-clamp technique. Positive current steps of different amplitude were injected (400 ms) to induce spikes trains before and following compound application.
To assess the potency of compounds using DRG neurons, the inhibitory potency for CAP-evoked action potential (AP) trains was measured. For this purpose, DRG membrane potential was continuously measured, and the following protocol was performed:
Cells were perfused with vehicle containing bath solution. After 30 seconds, CAP (1 μM) was applied for 6 seconds to activate TRPV1 and stimulate AP trains.
After 30 seconds of perfusion with bath solution containing only vehicle, perfusion was changed to a bath solution containing compound, and after 3 minutes of compound application, CAP (1 μM) was applied again for 6 seconds to activate TRPV1 and stimulate AP trains.
Cells perfusion was changed back to bath solution containing only vehicle and after 3 minutes of compound washout, CAP (1 μM) was applied again for 6 seconds to activate TRPV1 and stimulate AP trains.
To evaluate the drug/control response, the number of AP spikes induced by CAP following incubation with test compound was divided by the average number of control AP spikes induced without compound, before compound incubation, and following its washout.

[2] = Table 1, read-out: Kv7.2/7.3 IC50

T1 sequence (O43525 whole entry): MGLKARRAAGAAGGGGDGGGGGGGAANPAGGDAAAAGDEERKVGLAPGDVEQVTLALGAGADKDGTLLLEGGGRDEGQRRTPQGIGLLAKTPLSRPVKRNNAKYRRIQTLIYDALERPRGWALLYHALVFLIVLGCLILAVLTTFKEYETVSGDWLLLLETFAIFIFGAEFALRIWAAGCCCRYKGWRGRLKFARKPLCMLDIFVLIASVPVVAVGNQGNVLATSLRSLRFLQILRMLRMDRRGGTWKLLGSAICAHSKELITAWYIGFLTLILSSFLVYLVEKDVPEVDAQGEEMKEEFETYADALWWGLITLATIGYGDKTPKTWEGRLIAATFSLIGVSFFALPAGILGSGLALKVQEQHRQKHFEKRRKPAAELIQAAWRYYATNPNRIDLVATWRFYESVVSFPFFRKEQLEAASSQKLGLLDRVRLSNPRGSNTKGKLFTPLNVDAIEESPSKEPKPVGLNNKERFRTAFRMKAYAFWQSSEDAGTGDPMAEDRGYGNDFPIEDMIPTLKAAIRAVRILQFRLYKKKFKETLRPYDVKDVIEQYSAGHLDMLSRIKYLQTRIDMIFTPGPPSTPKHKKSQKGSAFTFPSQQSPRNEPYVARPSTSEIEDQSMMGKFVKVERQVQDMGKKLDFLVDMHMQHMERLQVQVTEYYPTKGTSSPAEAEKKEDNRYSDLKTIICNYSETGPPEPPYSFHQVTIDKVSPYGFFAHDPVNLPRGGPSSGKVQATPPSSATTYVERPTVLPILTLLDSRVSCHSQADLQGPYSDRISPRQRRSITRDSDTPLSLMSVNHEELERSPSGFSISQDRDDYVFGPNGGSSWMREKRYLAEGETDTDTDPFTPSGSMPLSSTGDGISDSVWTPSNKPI
T1 sequence (O43526 whole entry): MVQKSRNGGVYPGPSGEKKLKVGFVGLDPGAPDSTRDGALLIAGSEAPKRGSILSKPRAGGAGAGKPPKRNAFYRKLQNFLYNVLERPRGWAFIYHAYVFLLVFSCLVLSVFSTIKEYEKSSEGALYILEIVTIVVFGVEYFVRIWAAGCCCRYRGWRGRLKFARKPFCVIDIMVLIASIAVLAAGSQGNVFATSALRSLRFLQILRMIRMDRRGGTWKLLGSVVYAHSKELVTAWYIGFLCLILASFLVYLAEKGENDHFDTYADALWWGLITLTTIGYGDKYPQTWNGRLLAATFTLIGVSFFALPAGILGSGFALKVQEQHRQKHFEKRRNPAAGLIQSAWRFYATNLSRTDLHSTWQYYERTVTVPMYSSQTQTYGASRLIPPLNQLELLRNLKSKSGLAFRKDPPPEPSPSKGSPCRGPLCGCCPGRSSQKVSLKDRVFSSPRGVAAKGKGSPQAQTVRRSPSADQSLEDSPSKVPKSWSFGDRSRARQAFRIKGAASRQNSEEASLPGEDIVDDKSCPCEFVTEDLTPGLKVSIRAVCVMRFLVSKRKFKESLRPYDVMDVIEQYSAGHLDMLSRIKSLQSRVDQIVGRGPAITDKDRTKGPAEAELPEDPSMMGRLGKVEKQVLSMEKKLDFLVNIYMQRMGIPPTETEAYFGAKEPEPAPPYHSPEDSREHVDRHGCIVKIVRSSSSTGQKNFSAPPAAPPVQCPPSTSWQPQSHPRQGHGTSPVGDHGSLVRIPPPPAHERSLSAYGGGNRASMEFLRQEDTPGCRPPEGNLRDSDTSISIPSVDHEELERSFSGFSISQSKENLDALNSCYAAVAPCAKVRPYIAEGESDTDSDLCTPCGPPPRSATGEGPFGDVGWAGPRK

Row | SMILES | microsomal CLint at 1 µM ([1]; human liver microsomes) | EC50 (hKv7.2/3; [2]) | IC50 (rat DRG neurons) | EC50 (hKv7.2/3; read-out: Kv7.2/7.3 EC50) | HLM and/or Rat PK clearance rates compared to compound 661 [1] | half-life at 1 µM ([1]; human liver microsomes) | other results
1 | COC[C@@H](CO)NC(=O)Cc1cc(Sc2c(Cl)cc(F)cc2C(C)C)ccc1F [Compound 415] | 839 µL/min/mg | 2200 nM |  |  |  |  | 
2 | CC(C)c1cc(Cl)cc(Cl)c1C(=O)c1ccc(F)c(CC(=O)NCC(C)(C)O)c1 [Compound 417-4] | 91.8 µL/min/mg | 13400 nM |  |  |  |  | 
3 | Cc1cn(-c2ccc(F)c(CC(=O)NCC(C)(C)O)c2)c2c(Cl)cc(Cl)cc12 [Compound 421-6] |  | 1100 nM | < 100 nM | 2100 nM |  |  | Inhibition of capsaicin induced AP response (rat DRG neurons; 100 nM): 63.4±17.8%; Inhibition of capsaicin induced AP response (rat DRG neurons; 500 nM): 86.5±8.4%; Inhibition of AP response to capsaicin (rat DRG neurons; 2 μM): 97.9±2.1%; HLM Clint ([1]; human liver microsomes, 1 µM): 55.5 µL/min/mg
4 | O=C(Cc1cc(-n2cc(C(F)(F)F)c3cc(Cl)cc(Cl)c32)ncn1)NCCO [Compound 843] |  |  |  |  | improved HLM and/or Rat PK clearance rates compared to compound 661 | > 145 min | 
5 | O=C(Cc1nccc(-n2cc(Cl)c3cc(Cl)cc(Cl)c32)n1)NC1COCC1O (stereo not shown) [Compound 760] |  |  | 0.23 nM |  | improved HLM and/or Rat PK clearance rates compared to compound 661 |  | Inhibition of capsaicin-evoked action potential firing (rat DRG neurons; 1 nM): about 90%
6 | O=C(Cc1cncc(-n2cc(Cl)c3cc(Cl)cc(Cl)c32)c1)N[C@@H]1COC[C@H]1O [Compound 661] | 72 µL/min/mg | 1100 nM | 0.003 nM and 0.002 nM and < 0.003 nM |  |  | 19.2 min | IC50 (rat DRG neurons; listed as BS661): 0.002 nM; CLint scaled at 1 µM ([1]; human liver microsomes): 64.8 mL/min/kg; HLM T1/2 ([1]; human liver microsomes, 1 µM): 19.3 min; Kv7.2/3 activation (words) (hKv7.2/3): partial yet potent facilitation of Kv7.2/3 activity; Emax (hKv7.2/3; read-out: Kv7.2/3 maximal opening vs. control): 21%; EC50 (hKv7.2/3; read-out: hKv7.2/3 EC50 HCS): 0.001 nM
7 | O=C(Cc1ccnc(-n2cc(Cl)c3cc(Cl)cc(Cl)c32)n1)N[C@@H]1COC[C@H]1O [Compound 820] |  |  |  |  | improved HLM and/or Rat PK clearance rates compared to compound 661 | 33.8 min | 
8 | CC(C)c1cc(Cl)cc(Cl)c1Nc1ccc(F)c(CC(=O)NCC(C)(C)O)c1 [NH91, reference compound] |  |  | 500 nM | 700 nM |  | 7.4 min | 
9 | Cc1cn(-c2ccc(F)c(CC(=O)NCC(C)(C)O)c2)c2c(Cl)cc(Cl)cc12 [Compound 421] |  |  | 25 nM |  |  | 25 min | IC50 (rat DRG neurons; listed as BS421): 25 nM; CLint scaled at 1 µM ([1]; human liver microsomes): 50 mL/min/kg; EC50 (hKv7.2/3; read-out: hKv7.2/3 EC50 HCS): 824 nM
10 | O=C(Cc1cc(-n2cc(Cl)c3cc(Cl)cc(Cl)c32)ccc1F)NCCO [Compound 627] |  | 540 nM | 0.1 nM | 500 nM |  |  | Inhibition of capsaicin-evoked action potential firing (rat DRG neurons; 0.1 nM): about 50%; Inhibition of capsaicin-evoked action potential firing (rat DRG neurons; 1 nM): completely blocked; Kv7.2/3 activation (words) (hKv7.2/3): significant hKv7.2/3 activation even at picomolar concentrations; activation at 0.01 µM (hKv7.2/3; 10 nM range): ~30%
